Laboratory results reported in PubChem BioAssay AID2060901 (Molecular Pharmacology Branch, DTP, NCI, 2025).
pIC50: −log10 of the molar value. Values belong to the molecule of their own block, whether it stands above or below them.

Tested on: 422866-222-R5-J1-PDC complex spheroids viability
Assay: Anticancer human tumor 422866-222-R5-J1-PDC patient-derived pancreatic adenocarcinoma cell line growth inhibition [RAS]
Settings: for pIC50: curve of first compound; for viability, T/C: stronger effect = lower value
Outline: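 Agents were tested in combination matrices in half-log decrements from a top concentration at or near clinical Cmax (10 microM if undetermined). Targets were multi-cell spheroids of tumour lines plus HUVEC and MSC stromal cells.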

[1] = second compound 0.0316 µM, first compound 0.0316 µM
[2] = second compound 0.0316 µM, first compound 0.1 µM
[3] = second compound 0.0316 µM, first compound 0.316 µM
[4] = second compound 0.0316 µM, first compound 1 µM
[5] = second compound 0.0316 µM, first compound 3.16 µM
[6] = second compound 0.0316 µM, first compound 10 µM
[7] = second compound 0.1 µM, first compound 0.0316 µM
[8] = second compound 0.1 µM, first compound 0.1 µM
[9] = second compound 0.1 µM, first compound 0.316 µM
[10] = second compound 0.1 µM, first compound 1 µM
[11] = second compound 0.1 µM, first compound 3.16 µM
[12] = second compound 0.1 µM, first compound 10 µM
[13] = second compound 0.316 µM, first compound 0.0316 µM
[14] = second compound 0.316 µM, first compound 0.1 µM
[15] = second compound 0.316 µM, first compound 0.316 µM
[16] = second compound 0.316 µM, first compound 1 µM
[17] = second compound 0.316 µM, first compound 3.16 µM
[18] = second compound 0.316 µM, first compound 10 µM
[19] = second compound 1 µM, first compound 0.0316 µM
[20] = second compound 1 µM, first compound 0.1 µM
[21] = second compound 1 µM, first compound 0.316 µM
[22] = second compound 1 µM, first compound 1 µM
[23] = second compound 1 µM, first compound 3.16 µM
[24] = second compound 1 µM, first compound 10 µM
[25] = second compound 3.16 µM, first compound 0.0316 µM
[26] = second compound 3.16 µM, first compound 0.1 µM
[27] = second compound 3.16 µM, first compound 0.316 µM
[28] = second compound 3.16 µM, first compound 1 µM
[29] = second compound 3.16 µM, first compound 3.16 µM
[30] = second compound 3.16 µM, first compound 10 µM
[31] = second compound 10 µM, first compound 0.0316 µM
[32] = second compound 10 µM, first compound 0.1 µM
[33] = second compound 10 µM, first compound 0.316 µM
[34] = second compound 10 µM, first compound 1 µM
[35] = second compound 10 µM, first compound 3.16 µM
[36] = second compound 10 µM, first compound 10 µM
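Note: spheroids exposed to compounds for 7 days.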
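Throughout, for viability, T/C: 100% = DMSO vehicle control viability.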

pIC50 (second compound 0.00316 µM): > 7.50 | pIC50 (second compound 0.01 µM): > 7.50 | pIC50 (second compound 0.0316 µM): > 7.50 | pIC50 (second compound 0.1 µM): > 7.50 | pIC50 (second compound 0.316 µM): > 7.50 | pIC50 (second compound 1 µM): > 7.50
Compound: C[C@@H](NC(=O)c1ncnc(N)c1Cl)c1ncc(C(=O)Nc2cc(C(F)(F)F)c(Cl)cn2)s1 + C=CC(=O)N1CCN(c2nc(OCC3CCCN3C)nc3c(F)c(-c4nc(N)cc(C)c4C(F)(F)F)c(Cl)cc23)C(C)C1
viability, T/C (second compound 0.00316 µM, first compound 0.0316 µM): 31.7% | viability, T/C (second compound 0.00316 µM, first compound 0.1 µM): 47.2% | viability, T/C (second compound 0.00316 µM, first compound 0.316 µM): 31.7% | viability, T/C (second compound 0.00316 µM, first compound 1 µM): 29% | viability, T/C (second compound 0.00316 µM, first compound 3.16 µM): 32% | viability, T/C (second compound 0.00316 µM, first compound 10 µM): 30.6% | viability, T/C (second compound 0.01 µM, first compound 0.0316 µM): 41.5% | viability, T/C (second compound 0.01 µM, first compound 0.1 µM): 32.2% | viability, T/C (second compound 0.01 µM, first compound 0.316 µM): 33.3% | viability, T/C (second compound 0.01 µM, first compound 1 µM): 29.2% | viability, T/C (second compound 0.01 µM, first compound 3.16 µM): 30% | viability, T/C (second compound 0.01 µM, first compound 10 µM): 28.9% | viability, T/C [1]: 30.8% | viability, T/C [2]: 30.8% | viability, T/C [3]: 25.1% | viability, T/C [4]: 27.4% | viability, T/C [5]: 29.5% | viability, T/C [6]: 26.7% | viability, T/C [7]: 30.5% | viability, T/C [8]: 25% | viability, T/C [9]: 27.9% | viability, T/C [10]: 30.3% | viability, T/C [11]: 26.7% | viability, T/C [12]: 30.5% | viability, T/C [13]: 28% | viability, T/C [14]: 24.1% | viability, T/C [15]: 27.6% | viability, T/C [16]: 23.1% | viability, T/C [17]: 28.6% | viability, T/C [18]: 31.8% | viability, T/C [19]: 27.1% | viability, T/C [20]: 29.4% | viability, T/C [21]: 27.2% | viability, T/C [22]: 30% | viability, T/C [23]: 32.1% | viability, T/C [24]: 29.4%

pIC50 (second compound 0.0316 µM): 7.03 | pIC50 (second compound 0.1 µM): 7.09 | pIC50 (second compound 0.316 µM): 7.48 | pIC50 (second compound 1 µM): > 7.50 | pIC50 (second compound 3.16 µM): > 7.50 | pIC50 (second compound 10 µM): > 7.50
Compound: CC(Nc1ccc2c(c1)OCCn1cc(N3C(=O)OCC3C(F)F)nc1-2)C(N)=O (stereo unspecified) + C#Cc1c(F)ccc2cc(O)cc(-c3ncc4c(N5CC6CCC(C5)N6)nc(OCC56CCCN5CC(F)C6)nc4c3F)c12
viability, T/C [1]: 77% | viability, T/C [2]: 46.7% | viability, T/C [3]: 33.1% | viability, T/C [4]: 37.9% | viability, T/C [5]: 26.1% | viability, T/C [6]: 22.2% | viability, T/C [7]: 73.3% | viability, T/C [8]: 44.8% | viability, T/C [9]: 30.9% | viability, T/C [10]: 24.7% | viability, T/C [11]: 23% | viability, T/C [12]: 19.9% | viability, T/C [13]: 50.6% | viability, T/C [14]: 38.6% | viability, T/C [15]: 29.8% | viability, T/C [16]: 21.6% | viability, T/C [17]: 19% | viability, T/C [18]: 18.7% | viability, T/C [19]: 37.3% | viability, T/C [20]: 26.5% | viability, T/C [21]: 22.5% | viability, T/C [22]: 14.5% | viability, T/C [23]: 13.6% | viability, T/C [24]: 12.7% | viability, T/C [25]: 22.2% | viability, T/C [26]: 19.2% | viability, T/C [27]: 13% | viability, T/C [28]: 10.5% | viability, T/C [29]: 9.41% | viability, T/C [30]: 9.38% | viability, T/C [31]: 13.7% | viability, T/C [32]: 11.8% | viability, T/C [33]: 8.74% | viability, T/C [34]: 6.04% | viability, T/C [35]: 7.1% | viability, T/C [36]: 7.04%

pIC50 (second compound 0.0316 µM): < 5.00 | pIC50 (second compound 0.1 µM): < 5.00 | pIC50 (second compound 0.316 µM): < 5.00 | pIC50 (second compound 1 µM): > 7.50 | pIC50 (second compound 3.16 µM): > 7.50 | pIC50 (second compound 10 µM): > 7.50
Compound: C[C@@H](NC(=O)c1ncnc(N)c1Cl)c1ncc(C(=O)Nc2cc(C(F)(F)F)c(Cl)cn2)s1 + C#Cc1c(F)ccc2cc(O)cc(-c3ncc4c(N5CC6CCC(C5)N6)nc(OCC56CCCN5CC(F)C6)nc4c3F)c12
viability, T/C [1]: 108% | viability, T/C [2]: 114% | viability, T/C [3]: 106% | viability, T/C [4]: 117% | viability, T/C [5]: 89% | viability, T/C [6]: 57% | viability, T/C [7]: 103% | viability, T/C [8]: 88.3% | viability, T/C [9]: 89.2% | viability, T/C [10]: 74% | viability, T/C [11]: 85.3% | viability, T/C [12]: 58.3% | viability, T/C [13]: 68.8% | viability, T/C [14]: 67% | viability, T/C [15]: 72.2% | viability, T/C [16]: 55% | viability, T/C [17]: 72.8% | viability, T/C [18]: 48.1% | viability, T/C [19]: 43% | viability, T/C [20]: 44.5% | viability, T/C [21]: 45.4% | viability, T/C [22]: 39.7% | viability, T/C [23]: 49.6% | viability, T/C [24]: 46.7% | viability, T/C [25]: 29% | viability, T/C [26]: 28.4% | viability, T/C [27]: 40.1% | viability, T/C [28]: 28.3% | viability, T/C [29]: 33.1% | viability, T/C [30]: 27.9% | viability, T/C [31]: 24.3% | viability, T/C [32]: 22.6% | viability, T/C [33]: 24.8% | viability, T/C [34]: 24.4% | viability, T/C [35]: 23.9% | viability, T/C [36]: 24.5%
